Measurements reported in patent US8993547B2, “3-desoxy-2-methylene-19-nor-vitamin D analogs and their uses” (Wisconsin Alumni Research Foundation, priority 2011, dated 2015).
pEC50, pKi: −log10 of the molar value. “Also recorded” adds a separate entry of the source.

Tests used:
[1] = test system: Human promyelocytic leukemia (HL60) cells; assay: HL-60 cell differentiation (nitro blue tetrazolium reduction); type: cell-based; conditions: for pEC50: HL60 cells, 4 days
Procedure: The study drugs were dissolved in ethanol and the concentrations determined using UV spectrophotometry. Serial dilutions were prepared so that a range of drug concentrations could be tested without changing the final concentration of ethanol (≦0.2%) present in the cell cultures.
Human promyelocytic leukemia (HL60) cells were grown in RPMI-1640 medium containing 10% fetal bovine serum. The cells were incubated at 37° C. in the presence of 5% CO2.
HL60 cells were plated at 1.2×10^5 cells/ml. Eighteen hours after plating, cells in duplicate were treated with drug. Four days later, the cells were harvested and a nitro blue tetrazolium reduction assay was performed (Collins et al., 1979; J. Exp. Med. 149:969-974). The percentage of differentiated cells was determined by counting a total of 200 cells and recording the number that contained intracellular black-blue formazan deposits. Verification of differentiation to monocytic cells was determined by measuring phagocytic activity (data not shown).

[2] = test system: bone calcium mobilization; assay: Bone calcium mobilization (serum calcium) in vitamin D-deficient rats; type: in vivo, Sprague-Dawley rats; conditions: for bone calcium mobilization activity / serum calcium: vitamin D-deficient rats on low calcium diet (0.02%)
Procedure: (§1) Male, weanling Sprague-Dawley rats were placed on Diet 11 (Suda et al, J. Nutr. 100:1049, 1970) (0.47% Ca)+vitamins AEK for one week followed by Diet 11 (0.02% Ca)+vitamins AEK for 3 weeks. The rats were then switched to the same diet containing 0.47% Ca for one week followed by two weeks on the same diet containing 0.02% Ca. Dose administration began during the last week on 0.02% calcium diet. Four consecutive ip doses were given approximately 24 hours apart. Twenty-four hours after the last dose, blood was collected from the severed neck and the concentration of serum calcium determined by atomic absorption spectrometry as a measure of bone calcium mobilization. The first 10 cm of the intestine was also collected for intestinal calcium transport analysis using the everted gut sac method.

[3] = test system: intestinal calcium transport; assay: Intestinal calcium transport, everted gut sac method; type: in vivo, Sprague-Dawley rats; conditions: vitamin D-deficient rats
Procedure: as §1

[4] = target: T1, full-length recombinant rat vitamin D receptor (Rattus norvegicus, UniProt P13053); assay: Vitamin D receptor competitive binding with [3H]-1,25(OH)2D3; conditions: full-length recombinant rat VDR
T1 construct: Full-length recombinant rat receptor was expressed in E. coli; histidine tag (C); made in house; host or cells: E. coli BL21 (DE3) Codon Plus RIL
T1 sequence (P13053 1-423): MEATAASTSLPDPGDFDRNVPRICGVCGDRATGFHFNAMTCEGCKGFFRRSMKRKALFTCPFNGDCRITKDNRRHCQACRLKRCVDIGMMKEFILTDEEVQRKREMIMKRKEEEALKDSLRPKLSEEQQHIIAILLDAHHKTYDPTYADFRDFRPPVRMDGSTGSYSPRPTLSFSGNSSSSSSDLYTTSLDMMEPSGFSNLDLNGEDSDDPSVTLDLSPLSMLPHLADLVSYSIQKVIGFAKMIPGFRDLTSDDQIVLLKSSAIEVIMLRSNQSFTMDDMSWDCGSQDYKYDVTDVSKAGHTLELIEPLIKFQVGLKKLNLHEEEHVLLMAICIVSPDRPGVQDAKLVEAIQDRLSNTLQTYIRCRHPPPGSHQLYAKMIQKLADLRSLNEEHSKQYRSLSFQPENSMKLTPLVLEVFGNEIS
Procedure: Full-length recombinant rat receptor was expressed in E. coli BL21 (DE3) Codon Plus RIL cells and purified to homogeneity using two different column chromatography systems. The first system was a nickel affinity resin that utilizes the C-terminal histidine tag on this protein. The protein that was eluted from this resin was further purified using ion exchange chromatography (S-Sepharose Fast Flow). Aliquots of the purified protein were quick frozen in liquid nitrogen and stored at −80° C. until use. For use in binding assays, the protein was diluted in TEDK50 (50 mM Tris, 1.5 mM EDTA, pH7.4, 5 mM DTT, 150 mM KCl) with 0.1% Chaps detergent. The receptor protein and ligand concentration was optimized such that no more than 20% of the added radiolabeled ligand was bound to the receptor.
Radiolabeled and unlabeled ligands were added to 100 mcl of the diluted protein at a final ethanol concentration of ≦10%, mixed and incubated overnight on ice to reach binding equilibrium. The following day, 100 mcl of hydroxylapatite slurry (50%) was added to each tube and mixed at 10-minute intervals for 30 minutes. The hydroxylapaptite was collected by centrifugation and then washed three times with Tris-EDTA buffer (50 mM Tris, 1.5 mM EDTA, pH 7.4) containing 0.5% Titron X-100. After the final wash, the pellets were transferred to scintillation vials containing 4 ml of Biosafe II scintillation cocktail, mixed and placed in a scintillation counter. Total binding was determined from the tubes containing only radiolabeled ligand.

[5] = test system: 24-hydroxylase (24Ohase) gene promoter in ROS 17/2.8 (bone) cells; assay: In vitro transcription assay, 24-hydroxylase gene promoter luciferase reporter; type: cell-based; conditions: for transcriptional activity in bone cells compared to 1α,25-dihydroxyvitamin D3: 24-hydroxylase gene; for pEC50: ROS 17/2.8 cells, 16 hours after dosing, read-out: EC50, transcriptional activity in bone cells (24-hydroxylase gene)
Procedure: Transcription activity was measured in ROS 17/2.8 (bone) cells that were stably transfected with a 24-hydroxylase (24Ohase) gene promoter upstream of a luciferase reporter gene (Arbour et al., 1998). Cells were given a range of doses. Sixteen hours after dosing the cells were harvested and luciferase activities were measured using a luminometer. RLU=relative luciferase units.

Compound | pEC50 [1] | bone calcium mobilization activity / serum calcium [2] | intestinal calcium transport activity compared to 1,25(OH)2D3 [3] | binding affinity to vitamin D receptor compared to 1,25-(OH)2D3 [4] | pEC50 ([1]; Homo sapiens, HL-60, 96 h) | potency in mobilization of bone calcium relative to native hormone at the same dose ([2]; 780 pmol/day for 4 consecutive days, rats on low calcium diet (0.02%)) | potency in releasing bone calcium stores relative to native hormone ([2]; vitamin D-deficient rats, times more potent than 1,25(OH)2D3) | transcriptional activity in bone cells compared to 1α,25-dihydroxyvitamin D3 [5] | pEC50 [5] | pKi ([4]; read-out: Ki, competition with [3H]-1,25(OH)2D3 for binding to vitamin D receptor) | potency on HL-60 cell differentiation compared to 1,25(OH)2D3 [1] | mobilization of bone calcium compared to native hormone at the same dose ([2]; 87 pmol/day for 4 consecutive days)
C=C1/C(=C\C=C2/CCC[C@]3(C)[C@@H]([C@H](C)CCCC(C)(C)O)CC[C@@H]23)C[C@@H](O)C[C@@H]1O [1α,25-dihydroxyvitamin D3, reference compound] | 8.70 | increased serum calcium levels at the dosages tested | – | – | – | – | – | – | – | – | – | –
C=C1CC/C(=C/C=C2\CCC[C@]3(C)[C@@H]([C@@H](C)CCCC(C)(C)O)CC[C@@H]23)C[C@H]1O [3-desoxy-2MD, (20S)-3-desoxy-2-methylene-1α,25-dihydroxy-19-nor-vitamin D3] | – | – | about one half log less potent; also recorded: at least one half log less potent than 1,25(OH)2D3 | about the same affinity | 9.15 | about 10 times | at least 10 times | about the same transcriptional activity | 9.52 | – | – | –
C=C1CC/C(=C/C=C2\CCC[C@]3(C)[C@@H]([C@H](C)CCCC(C)(C)O)CC[C@@H]23)C[C@H]1O [3D-MJ, (20R)-3-desoxy-2-methylene-1α,25-dihydroxy-19-nor-vitamin D3] | – | about the same potency as the native hormone | about the same potency as 1,25(OH)2D3; also recorded: about as potent | about the same affinity | 9.00 | – | – | about the same transcriptional activity | 9.52 | 9.15 | about the same potency as 1,25(OH)2D3 | only slightly less mobilization of bone calcium than the native hormone
